Experimental data reported in paper PMC10177496, “An Isoxazoloquinone Derivative Inhibits Tumor Growth by Targeting STAT3 and Triggering Its Ubiquitin-Dependent Degradation” (Cancers, 2023).

Target: STAT3 (Homo sapiens, UniProt P40763)
Test: biotin pull-down (MDA-MB-231), LC/MS identification and STAT3 Western blot
Type: cell-based
From the text: biotin pull-down (MDA-MB-231), LC/MS identification and STAT3 Western blot on STAT3 | identified the proteins that bind to biotin–ZSW specifically using LC/MS. We determined that STAT3 was specifically stripped

Chain of STAT3 (P40763 2-770): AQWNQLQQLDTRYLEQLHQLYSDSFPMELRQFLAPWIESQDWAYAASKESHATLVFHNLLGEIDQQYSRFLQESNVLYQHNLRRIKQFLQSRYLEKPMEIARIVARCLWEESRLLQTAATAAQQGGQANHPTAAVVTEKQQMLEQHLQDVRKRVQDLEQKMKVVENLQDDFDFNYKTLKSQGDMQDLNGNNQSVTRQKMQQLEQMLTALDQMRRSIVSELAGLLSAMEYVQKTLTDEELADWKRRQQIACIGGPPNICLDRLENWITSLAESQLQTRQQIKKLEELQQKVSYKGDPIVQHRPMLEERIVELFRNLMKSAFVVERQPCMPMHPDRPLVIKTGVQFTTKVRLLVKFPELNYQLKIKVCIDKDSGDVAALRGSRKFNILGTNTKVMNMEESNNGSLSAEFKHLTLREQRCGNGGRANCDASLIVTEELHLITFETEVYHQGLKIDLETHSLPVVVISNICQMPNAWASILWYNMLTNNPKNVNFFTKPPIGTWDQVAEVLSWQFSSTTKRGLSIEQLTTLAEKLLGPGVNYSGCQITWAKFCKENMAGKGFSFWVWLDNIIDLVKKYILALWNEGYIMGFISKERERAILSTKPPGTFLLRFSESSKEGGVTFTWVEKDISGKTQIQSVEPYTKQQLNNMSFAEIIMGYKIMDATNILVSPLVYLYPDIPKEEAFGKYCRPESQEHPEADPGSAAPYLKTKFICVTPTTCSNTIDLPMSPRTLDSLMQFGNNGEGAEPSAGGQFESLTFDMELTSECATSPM

COc1cc(-c2noc3c2C(=O)c2cccnc2C3=O)cc(OC)c1OCCCOC(=O)CCCCC1SCC2NC(=O)NC21 (stereo not shown) [biotin–ZSW]
biotin pull-down (MDA-MB-231), LC/MS identification and STAT3 Western blot: identified the proteins that bind to biotin–ZSW specifically using LC/MS. We determined that STAT3 was specifically stripped
